Values of other authors as cited in patent publication US7968545B2 (priority 2003, dated 2011).

Experiments:
[1] = in vivo
[2] = in vivo; remark: listed apart in the source
[3] = human, in vivo

SMILES | success rate for the treatment of pain [1] [%] | reduction of infarct size [2] | share of patients in whom it works [3] [%]
CSCC[C@@H]1NC(=O)[C@H](CC(C)C)NC(=O)[C@H](CCCNC(=N)N)NC(=O)[C@H](CO)NC(=O)[C@@H]2CSSC[C@@H]3NC(=O)[C@H](CO)NC(=O)CNC(=O)[C@H]([C@@H](C)O)NC(=O)[C@H](CSSC[C@H](N)C(=O)N[C@@H](CCCCN)C(=O)NCC(=O)N[C@@H](CCCCN)C(=O)NCC(=O)N[C@@H](C)C(=O)N[C@@H](CCCCN)C(=O)N2)NC(=O)[C@H](CSSC[C@@H](C(N)=O)NC(=O)[C@H](CCCCN)NC(=O)CNC(=O)[C@H](CO)NC(=O)[C@H](CCCNC(=N)N)NC3=O)NC(=O)[C@H](CC(=O)O)NC(=O)[C@H](Cc2ccc(O)cc2)NC1=O [Ziconotide, ω-conotoxin-MVIIA] | 85 | effective in reducing infarct size | –
NCC1(CC(=O)O)CCCCC1 [Gabapentin] | – | – | 60
